US10065988B2, “Peptoid affinity ligands” (Stefano Menegatti, priority 2013, dated 2018)
*1 amine or outer side, *2 acyl side, *3 side chain or, on linkers, in order; H or OH if unused. Where a SMILES comes first, the peptide text is derived from it. [ ]: non-standard residue; d: D form. Gly(N(CH2)2(3-indolyl)) = O=C(O)CNCCc1c[nH]c2ccccc12; Gly(N-(CH2)3-guanidino) = N=C(N)NCCCNCC(=O)O; X1 = O=C(CN(CCc1ncc[nH]1)[*:1])[*:2]; Gly(N(CH2)3NH2) = NCCCNCC(=O)O; N(iPr)Gly = CC(C)NCC(=O)O

Tested on: human IgG (hIgG)
Assay: Batch mode IgG binding to peptoid-functionalized Toyopearl AF-amino 650 M resin
Details: polyclonal hIgG 0.5 mg/mL in PBS, 2 mg hIgG per mL resin, 45 min at 22° C., elution 0.1 M glycine pH 2.5, ELISA and SDS-PAGE (FIG. 1, FIG. 2)
Description: FIG. 1. Batch mode IgG adsorption to Toyopearl AF-amino 650 M resins functionalized with different peptoid ligands. IgG in the flow-through fractions (black) indicate the percent hIgG that was not adsorbed to the resin relative to the mass of hIgG loaded. The elution fractions (grey) indicate the percent of human IgG that was bound in phosphate buffered saline (PBS) and eluted (0.1 M glycine, pH 2.5) relative to the initial concentration of IgG that was loaded. Concentrations of hIgG in all fractions were determined by ELISA. The unmodified resin served as the negative control. Binding trials were done in duplicate for each resin.
FIG. 2. Reducing SDS-PAGE analysis of elution and flow-through fractions from hIgG adsorption experiments. Lanes designated “FT” and “Elute” are the flow-through and elution fractions, respectively. The lane marked “hIgG loaded” is the pre-adsorbed hIgG solution that was incubated with each resin tested. The heavy and light chains of hIgG migrate at ˜55 and ˜25 kDa, respectively, on reducing SDS-PAGE gels.
IgG Binding to Resin: The ability of the peptoid affinity ligands to bind human IgG (hIgG) was tested in batch mode. A 50% slurry of the resin was prepared, of which 200 μl (˜100 mg resin) was transferred into the spin column. The resin was throughly washed with dH2O and equilibrated with PBS prior to hIgG exposure. Polyclonal hIgG (Equitech-Bio) was diluted to 0.5 mg/mL with PBS. After equilibration, a 0.5 mg/mL solution of hIgG was added to the resin to achieve a ratio of 2 mg hIgG per mL of resin, and allowed to incubate for 45 min at 22° C. with vigorous shaking. After incubation, the resin was centrifuged at 500×g for 2 min in which the filtrate of this step was collected and labeled as “flow-through” fraction. The resin was subsequently washed 2× with PBS. Elution buffer (0.1 M glycine, pH 2.5) was added to the resin and mixed vigorously for 10 min at 22° C. After centrifugation (500×g for 2 min) bound hIgG was eluted from the resin and collected in the filtrate. The amount of hIgG found in the flow-through and elution fraction was determined using an ELISA-based quantitative assay (Bethyl, Cat. No. E80-104). hIgG yields were determined as the ratio of hIgG mass in the elution fraction and hIgG mass in the loading solution (FIG. 1). SDS-PAGE analysis of all collected fractions was carried out to determine product purity and evaluate the ligand selectivity (FIG. 2).

Ability of the peptoid affinity ligands to bind human IgG (hIgG) to the resin, useful for binding IgG to the resin:
CC(C)N(CC(=O)O)C(=O)CN(CCc1c[nH]c2ccccc12)C(=O)CNC(=O)CN(CCCNC(=N)N)C(=O)CN(CCc1c[nH]c2ccccc12)C(=O)CNCCc1ncc[nH]1 [Ligand G001] (H-[X1][Gly(N(CH2)2(3-indolyl))][Gly(N-(CH2)3-guanidino)]G[Gly(N(CH2)2(3-indolyl))][N(iPr)Gly]-OH), N=C(N)NCCCN(CC(=O)NCC(=O)O)C(=O)CN(CCc1c[nH]c2ccccc12)C(=O)CNCCc1ncc[nH]1 [Ligand G003], N=C(N)NCCCN(CC(=O)O)C(=O)CN(CCc1c[nH]c2ccccc12)C(=O)CNCCc1ncc[nH]1 [Ligand G005], CC(C)N(CC(=O)O)C(=O)CN(CCc1c[nH]c2ccccc12)C(=O)CNC(=O)CN(CCCN)C(=O)CN(CCc1c[nH]c2ccccc12)C(=O)CNCCc1ncc[nH]1 [Ligand G012] (H-[X1][Gly(N(CH2)2(3-indolyl))][Gly(N(CH2)3NH2)]G[Gly(N(CH2)2(3-indolyl))][N(iPr)Gly]-OH)
